Molecular target: T1, serotonin transporter (SERT) (Rattus norvegicus, UniProt P31652)
T1 construct: 225 μl of rat cortex suspension; from tissue; host or cells: rat (Sprague Dawley) brain cortex homogenate
Experiment: Serotonin transporter assay ([3H]-citalopram binding assay)
Settings: rat cortex

T1 sequence (P31652 whole entry): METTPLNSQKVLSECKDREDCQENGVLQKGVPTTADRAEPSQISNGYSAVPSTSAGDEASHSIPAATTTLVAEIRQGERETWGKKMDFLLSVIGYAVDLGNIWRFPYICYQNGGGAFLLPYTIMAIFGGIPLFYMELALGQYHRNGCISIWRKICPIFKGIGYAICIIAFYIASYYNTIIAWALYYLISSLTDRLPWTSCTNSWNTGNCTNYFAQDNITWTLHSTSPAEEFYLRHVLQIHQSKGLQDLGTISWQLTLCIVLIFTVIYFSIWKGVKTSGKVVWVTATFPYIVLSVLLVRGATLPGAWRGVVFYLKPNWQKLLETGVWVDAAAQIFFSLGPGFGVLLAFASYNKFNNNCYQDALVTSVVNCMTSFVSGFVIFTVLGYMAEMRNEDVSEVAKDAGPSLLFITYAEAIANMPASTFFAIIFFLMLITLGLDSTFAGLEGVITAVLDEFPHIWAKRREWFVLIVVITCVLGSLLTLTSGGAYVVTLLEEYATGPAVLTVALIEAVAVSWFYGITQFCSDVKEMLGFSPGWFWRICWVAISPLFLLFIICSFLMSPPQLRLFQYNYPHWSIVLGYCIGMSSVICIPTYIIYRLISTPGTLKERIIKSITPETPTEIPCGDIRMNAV

Structure (SMILES) | Activity in the SERT assay (displacement of 3H-citalopram), in words
C=CC(C)(O)CCC=C(C)C (centres unmarked) [Linalool, linalool] | effect was also detected
C=CC(C)(CCC=C(C)C)OC(C)=O (centres unmarked) [Linalyl acetate, linalyl acetate] | did not show affinity

Reference: publication PMC5437114, “Exploring Pharmacological Mechanisms of Lavender (Lavandula angustifolia) Essential Oil on Central Nervous System Targets” (Frontiers in Pharmacology, 2017)
